According to patent US20190151304A1, “METHODS AND PHARMACEUTICAL COMPOSITIONS FOR THE TREATMENT OF AUTOIMMUNE INFLAMMATORY” (INSERM (INSTITUT NATIONAL DE LA SANTÉ ET DE LA RECHERCJAE …, priority 2016, published 2019):
No end group written: not given here.

Experiments:
HEK-OX1R cells = test: Cells growth determination, HEK-OX1R cells; format: cell-based; conditions: 48 hr; OxA 0.1 μM, SB408124 increasing concentrations
Method: (§1) FIG. 12: Determination of the inhibition of cellular growth of HEK-OX1R cells and colon adenocarcinoma cells (HT-29) induced by 0.1 μM of OxA or various concentrations of SB408124 antagonist. HEK-OX1R cells (black column) and HT-29 cells (white column) were incubated with 0.1 μM of OxA and indicated increasing concentration of SB408124, and cells were counted after 48 hr incubation. Results are expressed as the percentage of total viable cells.
(§2) Cells growth determination and apoptosis assay: HEK-OX1R cells or colon adenocarcinoma HT-29 cells were seeded, grown and maintained at 37° C. in a humidified 5% CO2/air incubator. After 24 hr culture, cells were treated with or without Orexin-A peptide or SB408124 antagonist, previously dissolved in DMSO, to be tested at the concentration indicated in the figure legends. After 48 hr of treatment, adherent cells were harvested by Trip1E (Life Technologies, Saint Aubin, France) and manually counted. Apoptosis was determined using the Guava PCA system and the Guava nexin kit.

[1] = system: colon adenocarcinoma HT-29 cells; test: Cells growth determination, HT-29 cells; format: cell-based; conditions: 48 hr; OxA 0.1 μM, SB408124 increasing concentrations
Method: as §1, §2

OX1R = target: T1, OX1R (Homo sapiens, UniProt O43613, A280G); test: Ca2+ mobilization assay in HEK-OX1R cells (FluoForte); format: cell-based; conditions: 1 μM
T1 construct: HEK cells expressing recombinant native OX1R (HEK-OX1R); expressed in transfected cells; host or cells: HEK cells (HEK-OX1R)
T1 sequence (O43613 1-425 A280G): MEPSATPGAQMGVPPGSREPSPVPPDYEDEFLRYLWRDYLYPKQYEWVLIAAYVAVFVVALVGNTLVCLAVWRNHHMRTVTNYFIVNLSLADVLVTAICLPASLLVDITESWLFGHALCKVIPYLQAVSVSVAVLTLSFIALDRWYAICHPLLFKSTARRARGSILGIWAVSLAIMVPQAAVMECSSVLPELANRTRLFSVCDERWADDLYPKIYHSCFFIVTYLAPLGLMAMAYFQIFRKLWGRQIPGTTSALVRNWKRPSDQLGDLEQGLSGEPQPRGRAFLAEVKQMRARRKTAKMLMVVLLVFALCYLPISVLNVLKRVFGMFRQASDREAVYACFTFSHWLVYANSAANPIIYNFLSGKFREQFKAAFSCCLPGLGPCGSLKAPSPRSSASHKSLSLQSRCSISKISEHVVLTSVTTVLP

[2] = system: cytokines secretion in colon extracts; test: Cytokine assays in colon extracts of DSS-induced colitis mice; format: in vivo; conditions: OxA treatment
Method: FIG. 3: OXA effects on cytokines secretion in DSS-induced colitis mice. Right, Colons of DSS untreated mice (white), DSS treated mice (gray) and DSS treated mice associated to OxA treatment (black) were resected after animal sacrifice. Then, protein extraction was performed by tissue disruption. Cytokines were determined using Cytokine CBA kits (see Material and Methods). Left, after colon resection, RNA were extracted from colonic tissue and qPCR was performed using specific oligonucleotides for IL8 homolog and IL1B.
These observations are confirmed by histologic aspect of colon epithelium (histologic scoring by a GI pathologist). Thus, OxA has probably an anti-inflammatory effect on DSS-induced colitis. To confirm this hypothesis, we have investigated the anti-inflammatory effect of OxA treatment on cytokines secretion in colon extracts from DSS-treated mice. […] In contrast, OxA has no effect on INFγ, IL10, and IL12 cytokine secretion in colon extracts (FIG. 3).
Cytokine assays: Mice were sacrificed and colons were resected. Proteins were extracted from colon by tissue disruption in PBS using Tissue Lyser (Qiagen, Courtaboeuf, France). Various cytokines (see FIG. 3) were determined using Cytokine CBA kits (BD Sciences, Le Pont de Claix, France).

[3] = system: colon adenocarcinoma HT-29 cells; test: Apoptosis assay (annexin V-PE binding, Guava nexin kit) in HT-29 cells; format: cell-based; conditions: 48 h; orexin-A 1 μM, SB408124 various concentrations
Method: FIG. 13: Effect of orexin-A and SB408124 antagonist on apoptosis in OX1R expressing colon adenocarcinoma cells, HT-29. HT-29 cells were challenged with 1 μM orexin-A or various concentration of SB408124 for 48 h. Apoptosis was measured by determination of annexin V-PE binding, and results are expressed as the percentage of apoptotic cells. Results are means±SE of three experiments. ***P<0.001.
as §2

OxA: neuropeptide, endogenous ligand of OX1R and OX2R, with two disulphide bridges (QPLPDCCRQKTCSCRLYELLHGAGNHAAGILTL; disulfide (positions not given here); ends not checked; also: two disulphide bridges, pairing not given here; UniProt O43612 34-66, looked up)
Inhibition of cellular growth of HEK-OX1R cells (HEK-OX1R cells): strong inhibition | Inhibition of cellular growth of HT-29 cells [1]: strong inhibition | Ca2+ mobilization induced in HEK-OX1R cells (OX1R): large and transient | IL6 secretion in colon extracts [2]: reduces | IL10 secretion in colon extracts [2]: no effect | IL12 secretion in colon extracts [2]: no effect | INFγ secretion in colon extracts [2]: no effect | TNFα secretion in colon extracts [2]: reduces | IL1B in colon extracts ([2]; qPCR per FIG. 3): reduces | IL8 homolog in colon extracts ([2]; qPCR per FIG. 3): reduces | Apoptosis in HT-29 cells [3]: induced an apoptotic effect
